The values that follow come from patent US20100234395A1, “UREIDE DERIVATIVE AND PHARMACEUTICAL APPLICATION THEREOF” (TORAY INDUSTRIES, INC., priority 2006, published 2010).

Read-outs that look alike come from different tables or passages of the source.

The IC50 is the concentration that inhibits the measured activity by half. A low value points to inhibition by little substance.

One assay concerns ICR mice. Description: Partial sciatic nerve ligation model in mice (Seltzer model), von Frey test. It counts as in vivo. The note with it: oral administration of 3 and 10 mg/kg of Example 27 and Example 40, respectively; 7 days after ligation; FIG. 1. The protocol: Analgesic effects of the compound of the present invention were evaluated using the partial sciatic nerve ligation model (Seltzer models) in mice, with which neuropathic pain can be evaluated.
Models of neuropathic pain were prepared in accordance with the method of Seltzer et al. ICR mice (5-week-old, male) were put under anesthesia with sodium pentobarbital (70 mg/kg, i.p.) to expose the sciatic nerve of the femoral region of the right posterior limb, and half of the sciatic nerve was strongly and triply ligated using 8-0 silk yarn (Natsume Seisakusho, Co., Ltd.) under a microscope (this group is designated as the “ligation group”). The group that had been subjected to exposure of the sciatic nerve without ligation was designated as a sciatic nerve control group (i.e., the “sham group”). […] The von Frey tests were performed 1 hour, 2 hours, and 3 hours after the oral administration for determining the pre-values prior to the administration of the test substances, which took place 7 days after the ligation surgery of sciatic nerve, and such values were designated as the indicators of analgesic effects. Gabapentin (30 mg/kg, po) was used as a positive control. As a solvent for the test compound, 27% HP—P—CD was used.
The obtained data were processed by performing a paired t-test amongst several groups and correcting the data via Dunnett's method.
The compound of Reference Example 78 is disclosed in the claims of JP Patent Publication (kohyo) No. 2006-517535 A, the compounds of Reference Example 93 and Reference Example 199 are disclosed in the claims of JP Patent No. 3003148, and the compound of Reference Example 103 is disclosed in the claims of JP Patent Publication (kohyo) No. 2006-514095 A. Accordingly, sulfate of Reference Example 78, toluenesulfonate of Reference Example 93, the free compound of Reference Example 199, and sulfate of Reference Example 103 were used as test compounds and evaluated using mouse models of partial sciatic nerve ligation, which were similar to those used in Example 79. 27% HP-β-CD was used as a solvent for the test compounds.

The target of another assay is T1, COX-2 (Homo sapiens, UniProt P35354).
T1 construct: Human blood that had been sampled with the use of heparin (19 units/ml) was used; from tissue; host or cells: human whole blood (heparinised), aspirin-pretreated, stimulated with lipopolysaccharide
T1 sequence (P35354 18-604): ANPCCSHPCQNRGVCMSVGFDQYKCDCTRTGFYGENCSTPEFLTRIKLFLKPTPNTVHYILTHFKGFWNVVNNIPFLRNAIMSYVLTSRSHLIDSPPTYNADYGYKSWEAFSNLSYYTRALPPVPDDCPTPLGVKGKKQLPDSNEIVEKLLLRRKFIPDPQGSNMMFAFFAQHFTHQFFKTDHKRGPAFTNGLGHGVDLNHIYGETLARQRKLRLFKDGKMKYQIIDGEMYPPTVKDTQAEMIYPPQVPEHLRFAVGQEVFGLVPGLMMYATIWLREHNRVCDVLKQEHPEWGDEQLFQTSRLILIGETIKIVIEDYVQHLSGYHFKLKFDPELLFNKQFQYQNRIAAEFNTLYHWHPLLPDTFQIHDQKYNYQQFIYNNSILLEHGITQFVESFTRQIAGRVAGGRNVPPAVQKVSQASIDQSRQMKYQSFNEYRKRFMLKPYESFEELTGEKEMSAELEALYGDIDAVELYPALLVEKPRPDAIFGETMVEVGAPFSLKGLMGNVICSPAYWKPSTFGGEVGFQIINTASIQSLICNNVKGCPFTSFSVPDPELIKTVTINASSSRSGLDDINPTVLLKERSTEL
Briefly: Activity of inhibiting COX-2 in human blood (prostaglandin E2 after lipopolysaccharide). The following applies: prostaglandin E2 production. It counts as cell-based. The protocol:
Human blood that had been sampled with the use of heparin (19 units/ml) was used. Blood was fractionated to reaction tubes in amounts of 500 μl, aspirin (12 μg/ml) was added thereto, and the resultants were incubated at 37° C. for 6 hours. Thereafter, the test compound or solvent, and lipopolysaccharide (10 μg/ml) were added, and the reaction was allowed to proceed for 18 hours. After the completion of the reaction, the supernatant (blood plasma) was recovered via centrifugation at 4° C., and the amount of prostaglandin E2 in the plasma was quantified using a kit (514010, Cayman Chemical). Dimethyl sulfoxide (DMSO) was used as a solvent for the test compound. The amount of prostaglandin E2 produced via the addition of lipopolysaccharide was designated as 100%, and the concentration of the test compound that inhibits 50% of such reaction was represented by the IC50 value.

Assay [1] concerns ddY mice. Description: Formalin test in mice. In kind it is in vivo. The following applies: oral 10 mg/kg, FIG. 2; for indicator of pain (licking time), phase II: 10 to 30 minutes after formalin; for indicator of pain (licking time), phase I: within 10 minutes after formalin. As for the experimental part:
ddY mice were grown for at least 16 hours under fasting conditions while free water intake was allowed, and a solution of the test compound or a solvent was orally administered thereto (0.1 ml/10 g). As a solvent for a solution of the test compound, 27% HP-β-CD was used. Thirty minutes after administration, 20 μl of a 2.5% formalin solution was subcutaneously administered to the ichnograms of right posterior legs of mice to induce a movement of licking. A movement of mice to lick the treated legs was designated as an indicator of pain, and the licking time was measured at 5-minute intervals for 30 minutes. The reaction that had occurred within 10 minutes immediately after administration of the formalin solution was designated as the phase I reaction, and the reaction that had occurred 10 to 30 minutes after administration was designated as the phase II reaction.

Assay [2] has as its system ddY mice. Description: Acetic acid writhing test in mice (analgesic effects). In kind it is in vivo. The following applies: for ED50: Mus musculus; for activity ratio (analgesic effects): subcutaneous administration. The protocol:
ddY mice were grown for at least 16 hours under fasting conditions while free water intake was allowed, and a solution of the test compound or a solvent was orally administered thereto (0.1 ml/10 g). As a solvent for a solution of the test compound, dimethyl sulfoxide (DMSO):Tween 80:27% hydroxypropyl-P-cyclodextrin (hereafter abbreviated to “HP-β-CD”) (1:1:8) or 27% HP-β-CD was used. A solution of 0.6% acetic acid (0.1 ml/10 g) was administered intraperitoneally 45 minutes after administration to induce a writhing reaction (i.e., a movement of stretching or arching the body). The number of the writhing reactions that had occurred for the period from 10 minutes after administration of the acetic acid solution to 10 minutes thereafter was counted, and the number of times was designated as an indicator of pain. The number of times of reactions in the group to which a solvent had been administered was designated as 100%, and the concentration of the test compound that had inhibited 50% of such reaction was designated as the ED50 value.
The compound of Reference Example 78 is disclosed in the claims of JP Patent Publication (kohyo) No. 2006-517535 A, the compounds of Reference Examples 93 and 199 are disclosed in the claims of JP Patent No. 3003148, and the compound of Reference Example 103 is disclosed in the claims of JP Patent Publication (kohyo) No. 2006-514095 A. Thus, these compounds were compared with the compounds of the present invention having similar structures in terms of analgesic effects with oral administration (Table 4) or subcutaneous administration (Table 5). Dimethyl sulfoxide (DMSO):Tween 80:27% HP-β-CD (1:1:8) or 27% HP-β-CD was used as a solvent for the test compound.
Background: In writhing tests, fewer writhes than in controls are read as antinociception.

The next assay addresses T2, COX-1 (Homo sapiens, UniProt P23219).
T2 construct: Human blood that had been sampled with the use of heparin (19 units/ml) was used; from tissue; host or cells: human whole blood (heparinised)
Briefly: Activity of inhibiting COX-1 in human blood (thromboxane B2 after ionomycin). In kind it is cell-based. The note with it: thromboxane B2 production. As for the experimental part:
Human blood that had been sampled with the use of heparin (19 units/ml) was used. Blood was fractionated to reaction tubes in amounts of 500 μl, the test compound or solvent was added thereto, and the resultants were incubated at 37° C. for 60 minutes. Dimethyl sulfoxide (DMSO) was used as a solvent for the test compound. Thereafter, ionomycin (30 nM) was added, and the reaction was allowed to proceed for 30 minutes. After the completion of the reaction, the supernatant (blood plasma) was recovered via centrifugation at 4° C., and the amount of thromboxane B2 in the plasma was quantified using a kit (519031, Cayman Chemical). The amount of thromboxane B2 produced via the addition of ionomycin was designated as 100%, and the concentration of the test compound that inhibits 50% of such reaction was represented by the IC50 value.

The mark [3] stands for this setting: sc, Table 5, subcutaneous administration, read-out: ED50 (mg/kg) [90% confidence limit].
[4] abbreviates: oral administration 45 minutes before 0.6% acetic acid i.p., 50% inhibition of writhing reactions, read-out: ED50 (mg/kg)[90% confidence limit].

T2 sequence (P23219 24-599): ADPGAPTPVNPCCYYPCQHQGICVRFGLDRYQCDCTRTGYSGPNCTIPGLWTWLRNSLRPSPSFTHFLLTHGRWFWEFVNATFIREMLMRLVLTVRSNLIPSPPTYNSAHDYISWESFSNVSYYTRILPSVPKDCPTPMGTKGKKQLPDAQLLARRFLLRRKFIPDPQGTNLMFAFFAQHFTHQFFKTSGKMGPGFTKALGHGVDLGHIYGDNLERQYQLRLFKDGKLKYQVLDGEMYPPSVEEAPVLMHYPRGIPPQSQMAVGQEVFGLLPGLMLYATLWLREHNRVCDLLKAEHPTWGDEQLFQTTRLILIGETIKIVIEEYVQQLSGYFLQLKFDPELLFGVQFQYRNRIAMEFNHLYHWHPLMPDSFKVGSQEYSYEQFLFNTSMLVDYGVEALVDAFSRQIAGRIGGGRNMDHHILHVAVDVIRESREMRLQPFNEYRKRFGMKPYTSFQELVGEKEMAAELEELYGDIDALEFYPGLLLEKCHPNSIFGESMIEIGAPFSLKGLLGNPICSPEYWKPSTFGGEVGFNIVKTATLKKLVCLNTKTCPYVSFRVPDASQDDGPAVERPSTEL

Regarding `COc1ccc(-c2nc(C3CCN(C(=O)N(C)O)CC3)sc2-c2ccc(OC)cc2)cc1` [Example 27, 4-(4,5-Bis(4-methoxyphenyl)thiazol-2-yl)-1-(N-hydroxy-N-methylcarbamoyl)piperidine], the “results of the von Frey test” value in the assay with ICR mice is on record as “significantly improved”. In addition, the concentration for half-maximal inhibition (IC50) against COX-2 is over 10 µM; against COX-1, under 0.1 µM. Further, the “indicator of pain (licking time), phase II” value with ddY mice [1] was “significantly improved”. In the assay with ddY mice [1], the “indicator of pain (licking time), phase I” value is reported as “significantly improved”. The ED50 with ddY mice [2] (setting [3]) amounted to 1.82 mg/kg; with ddY mice [2] (setting [4]) it was 2.46 mg/kg. Further, the “activity ratio (analgesic effects)” value in the assay with ddY mice [2] (compared with Reference Example 93 (toluenesulfonate)) is “at least 54 times”; in the assay on ddY mice [2] (compared with Reference Example 199), “about 19 times”.

Take `COc1ccc(-c2cc(C3CCN(C(=O)N(C)O)CC3)nn2-c2ccc(OC)cc2)cc1` [Example 40, 4-(1,5-Bis(4-methoxyphenyl)-1H-pyrazol-3-yl)-1-(N-hydroxy-N-methylcarbamoyl)piperidine]: the “results of the von Frey test” value in the assay on ICR mice was “significantly improved”. Also, the IC50 was over 10 µM against COX-2 and under 0.1 µM at COX-1. Also, in the assay on ddY mice [1], the “indicator of pain (licking time), phase II” value is listed as “significantly improved”. In the assay on ddY mice [1], the “indicator of pain (licking time), phase I” value is recorded as “significantly improved”. In addition, the ED50 in the assay with ddY mice [2] (setting [3]) is 2.47 mg/kg; with ddY mice [2] (setting [4]) it was 1.64 mg/kg. Moreover, the “activity ratio (analgesic effects)” value with ddY mice [2] (compared with Reference Example 103 (sulfate)) is given as “at least 40 times”.
